The subject of assay [1] is 5XFAD mice. As to the kind of experiment: LTP recording (EPSCs) at hippocampal CA1 region. In kind it is in vivo. The note with it: 8-month old 5XFAD mice, oral administration.
For assay [2], the system named is neurons and neural stem cells (NSCs). The note with it: in vitro, even in the presence of cytotoxic oligomers of Aβ1-42; cited from earlier work.
In assay [3] the test system is whole brains of normal mice. As to the kind of experiment: Bulk RNA-Seq of whole brains of normal mice. In kind it is in vivo. The note with it: FC ≥1.3, FDR <0.05. Here is the method: (§1) Trametinib treatment: Trametinib (Medchemexpress, Monmouth Junction, N.J.) was micronized and suspended in the vehicle containing 5% mannitol, 1.5% hydroxypropyl methylcellulose and 0.2% sodium lauryl sulfate. For pharmacokinetic analysis, 0.05, 0.2 and 0.8 mg/kg of trametinib were orally administered to 7-week-old normal mice (ICR, n=5 per group) as a single administration. […] For studies on the change in pERK expression in normal mice and whole cell RNA sequencing study, 0.1 mg/kg/day of trametinib (in 4% DMSO+96% corn oil) was orally administered to 6-week old C57BL/6 mice (n=3 per group). Mice were sacrificed after 1, 2, 3, or 4 weeks of administration. 5XFAD mice (male, n=7˜10 per group) were divided into vehicle and trametinib treated groups. 12-month old mice received vehicle or 0.1 mg/kg of trametinib for 1 month by oral gavage once a day (These mice are referred to as “13-month old 5XFAD mice” in the Examples). […] Blood was obtained after completion of treatment.
Whole cell RNA sequencing: RNA was isolated from mice whole brain, and cDNA libraries for RNA sequencing were prepared using the TruSeq Stranded mRNA Prep Kit (Illumina, San Diego, Calif.) according to the manufacturer's guidelines (1). The libraries were sequenced on the Illumina Nextseq500 platform, and the reads were mapped to the reference Mouse mm10 genome using Tophat v2.0.13. […] To define differentially expressed genes (DEG), we set up a stringent statistic cutoff of fold change (FC) of ≥1.3 and a false discovery rate (FDR)<0.05. […] Gene ontology was performed with the Gene Ontology program of the gene ontology consortium. Heatmap analysis was performed by R studio using the DEG list related with synapse, neurogenesis and lysosome.

In assay [4] the test system is primary cortical neurons. Put plainly: Immunofluorescence of LC3, LAMP1 and lysotracker in primary cortical neurons. In kind it is cell-based, ICR mice. Particulars: even in the presence of Aβ1-42 oligomers. Here is the method:
Cell culture: SH-SY5Y neuroblastoma cells were cultured at 37° C., 5% CO2., in Dulbecco's Modified Eagle Medium/Ham's F-12 nutrient mixture (DMEM/F12) (Invitrogen, Carlsbad, Calif.) supplemented with 10% heat-inactivated fetal bovine serum containing 100 units/ml penicillin, 100 μg/ml streptomycin. Primary cortical neuron cultures were derived from embryo day 18 (E18) from ICR mice. The dissociated cells were plated on glass cover slips coated with poly-D-lysine in Neurobasal medium supplemented with 2% B27 (Invitrogen), 100 units/ml penicillin, 100 μg/ml streptomycin, and 2 mM L-glutamine. Primary NSCs from normal mice were isolated from the subventricular zone (SVZ) of 8 week-old C57BL/6 mice brain. NSCs from adult Tg2576 mice brain were obtained from Seoul National University Hospital. […]
Immunocytochemistry: SH-SY5Y cells or adult NSCs were placed on glass coverslips coated with poly-L-ornithine/laminin or poly-D-lysine, respectively. […] The percentage of coefficient was calculated using the pixels above threshold of fluorescence intensities. […] The fluorescence intensity was observed under a confocal microscopy using a LSM700 microscope (Carl Zeiss). The number of LysoTracker puncta was analyzed with Icy software.

Assay [5] concerns patient with Alzheimer's disease. Put plainly: Therapeutic effects of trametinib in humans. In kind it is in vivo, human. Particulars: daily for at least four weeks, brain Cmax at least 0.25 ng/g. Here is the method: Trametinib is administered to a patient with Alzheimer's disease in an amount that provides a mean peak trametinib concentration (Cmax) of at least 0.25 ng/g in the brain. The administration is performed daily for at least four weeks.

Assay [6] relates to 5XFAD mice. Put plainly: Immunofluorescence staining of Map2, Tau and swollen axons in cortex layer V. In kind it is in vivo. Here is the method: as §1
Brains were dissected and analyzed by immunohistochemistry. For paraffin sections, brain hemispheres were embedded sagittally in paraffin and prepared into sections of […] slices. […] The sections were counterstained with DAPI. […] NeuN-positive and active caspase 3-positive cells from cortex layer V were counted using Icy micromanager program (Institut Pasteur, Paris, France).

On to `CC(=O)Nc1cccc(-n2c(=O)n(C3CC3)c(=O)c3c(Nc4ccc(I)cc4F)n(C)c(=O)c(C)c32)c1` [trametinib], for which, in assay [1], the “long-term potentiation (LTP), EPSC slope” value was “recovered in the trametinib-orally administered animals to a level almost comparable to that of the wild type control”. Also, the “neuronal differentiation and survival of neurons and NSCs” value in assay [2] is “effective in inducing neuronal differentiation and promoting survival of neurons and neural stem cells (NSCs)”. The “number of differentially expressed genes (DEGs) between vehicle and trametinib group” value in assay [3] (first week) is recorded as 500; in assay [3] (fourth week), 538; in assay [3] (second week), 498; in assay [3] (third week) it was 446. In addition, the “co-staining of LC3-LAMP1” value in assay [4] is listed as “increased co-staining of LC3-LAMP1”. Moreover, the lysotracker-positive acidic puncta entry in assay [4] was “increased”. In addition, the “behavioral and/or physiological symptoms associated with Alzheimer's disease” value in assay [5] is “reduces behavioral and/or physiological symptoms associated with Alzheimer's disease”. Further, in assay [6] (5XFAD mice, compared to vehicle-administered group), the bulb-like swollen axons entry is reported as “significantly reduced”. Besides, the “dendritic and axonal lengths (Map2, Tau)” value in assay [6] (cortex of 8-month-old and 13-month-old 5XFAD mice) was “recovery of dendritic and axonal lengths”.
